Source: patent EP1108710A1, “GUAIACOXYPROPANOLAMINES WITH ALPHA/BETA-ADRENERGIC BLOCKING ACTIVITY” (Cheng, Ing-Jun, priority 1998, dated 2000)
Like-named read-outs stand apart in the source and are kept apart here.

Experiments:
normotensive rats = assay: Heart rate and blood pressure in living (anaesthetized) rat, intravenous injection; type: in vivo, Wistar rats; conditions: lmg/kg; via femoral vein, rats
Excerpt: Male Wistar rats, weighing 200 ∼ 300g were abdominal anaesthetized with pentobarbital sodium. Tracheal was cannulated to maintain normal respiration. Polyethylene tube was inserted into the left femoral vein to facilitate drug administration. A 3-way stopcock was used, with one end connected to a syringe for drug injection, while the other end was connected to the syringe filled with physiological saline. The latter was used to prevent residual drugs in the polyethylene tube after injection, which would affect experimental accuracy.
The right femoral artery was also inserted with polyethylene, and a 3-way stopcock was used tool, where one end was connected to heparin solution to prevent embolism. The other end was connected to a Disposable Diaphragm Dome, TA1019, and linked to a transducer. Through an amplifier, a recorder recorded the overall and average arterial pressure; heart rate to evaluate the effect of drug on blood pressure and heart rate.

[1] = test system: Wistar rat's isolated thoracic aorta; assay: Isolated thoracic aorta contraction caused by 75mM KCl
Experimental: After sacrificing Wistar rat of weight between 300 - 500 gm, the thoracic aorta was immediately removed and placed in cold Kreb's solution. The fatty connecting tissue surrounding the vessel wall was removed and the thoracic aorta was cut into rings of length 5 mm. The two ends of each ring was pieced and fixed with "Z" shaped platinum wires. […] When the results had been recorded for at least 35 minutes, the aorta was repeatedly rinsed with normal Kreb's solution. […] 30 minutes later, 75mM KCl was added again to induce vasoconstriction.

β-adrenoreceptor (β1) = biological target: T1, β-adrenoreceptor (β1) (Rattus norvegicus, UniProt P18090); assay: β-adrenoceptor blocking action on isolated spontaneously beating right atrium (L-isoproterenol-induced heart rate increase, Schild plot); design: species or system Wistar rat; conditions: from the average pA2 difference between right atrium and tracheal
T1 construct: The right and left atria were then separated; from tissue; host or cells: isolated rat right and left atria
T1 sequence (P18090 whole entry): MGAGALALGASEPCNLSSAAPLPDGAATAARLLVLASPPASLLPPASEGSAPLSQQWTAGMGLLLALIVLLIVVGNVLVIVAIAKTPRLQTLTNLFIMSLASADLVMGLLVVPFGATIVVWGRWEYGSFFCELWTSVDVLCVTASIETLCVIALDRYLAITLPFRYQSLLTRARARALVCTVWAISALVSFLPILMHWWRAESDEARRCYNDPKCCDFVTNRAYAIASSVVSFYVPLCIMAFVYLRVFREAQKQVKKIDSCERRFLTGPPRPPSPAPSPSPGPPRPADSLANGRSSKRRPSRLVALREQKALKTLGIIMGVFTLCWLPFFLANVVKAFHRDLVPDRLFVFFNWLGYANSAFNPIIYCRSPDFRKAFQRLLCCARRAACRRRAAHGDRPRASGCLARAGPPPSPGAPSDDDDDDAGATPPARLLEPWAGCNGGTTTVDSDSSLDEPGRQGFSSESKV
Experimental: The right and left atria were then separated. The spontaneously-beating right atria was clipped on both end by heart shaped clips, where one end was fixed at the bottom of 10ml of tissue bath made of physiological saline solution, and temperature maintained at 37°C. The other end of the atria was connected to a force transducer, and isometric contractions and beating rate of the right atria were recorded by COULBOURN AT-High-Speed VideoFigure. […] Cumulative administration interval was when the previous concentration reached its greatest effect, the next concentration would be immediately given.

[2] = test system: guinea pig's isolated; reserpine pretreated tracheal; assay: Direct effect (tracheal relaxation, intrinsic sympathomimetic activity) on reserpine-pretreated isolated trachea, with and without ICI 118,551; conditions: cumulative administration 10^-10∼3x10^-6 M, reserpine pretreated
Experimental: Pharmacol 311, pp. 205-218 and pp.237-248 (1980). guinea pigs of weight between 350 ∼ 500 gm were used. 18 ∼ 24 hours before the experiment, 5mg/kg of reserpine was injected via abdominal cavity to remove all endogenous catecholamines. Prior experiment, guinea pigs were sacrificed, the tracheal was immediately removed and placed in Kreb's solution aerated with air mixture and maintained at room temperature of 22 ∼ 25°C. […] […] Then the tissue was repeatedly washed with Kreb's solution. After the tissue had been re-equilibrated for 60 minutes, ICI 118, 551 were administed. After treatment for 30 minutes, compound 1 of similar concentration was administered, and the intrinsic sympathomimetic activity of tracheal was observed.

[3] = test system: Wistar rat's isolated; reserpine pretreated right atrium beating rate and left atrium isometric contractions; assay: Direct effect (intrinsic sympathomimetic activity) on reserpine-pretreated isolated atria
Experimental: Pharmacol 311, pp. 205-218 and pp 237-248 (1980). Wistar rats of weight between 200 ∼ 300 gm were used. 18 ∼ 24 hours before the experiment, 5mg/kg of reserpine was injected via abdominal cavity to remove all endogenous catecholamines. Prior experiment, Wistar rats were sacrificed, the heart was immediately removed and placed in Kreb's solution aerated with air mixture and maintained at room temperature. The right and left atria were carefully separated.

[4] = 10^-8M, thoracic aorta contraction caused by 75mM KCl

Structure (SMILES) | Lowering of Blood Pressure (normotensive rats) [mm Hg] | Reduction of Heart Rate (normotensive rats) [beats/min] | Aorta Relaxation [1, 4] [%] | also measured
COC(=O)C1=C(C)NC(C)=C(C(=O)OC)C1c1ccc(OCC(O)CNCCOc2ccccc2OC)c(OC)c1 (stereo not shown) [compound 2, 4-{{N-{4-[2-hydroxy-3-(2-methoxy-1-oxyethyl-aminobenzene)propoxy]-3-methoxy}phenyl}}-2,6-dimethyl-3,5-dicarbo-methoxy-1,4-dihydropyridine] | 75± 2 | 35± 4 | 40± 4 | –
CCOC(=O)C1=C(C)NC(C)=C(C(=O)OCC)C1c1cc(Cl)ccc1OCC(O)CNC(C)(C)C (stereo not shown) [compound 4] | 76± 6 | 33± 3 | 35± 5 | –
CCOC(=O)C1=C(C)NC(C)=C(C(=O)OCC)C1c1cc([N+](=O)[O-])ccc1OCC(O)CNCCOc1ccccc1OC (stereo not shown) [compound 9] | 85± 6 | 40± 5 | 47± 2 | –
CCOC(=O)C1=C(C)NC(C)=C(C(=O)OCC)C1c1ccc(OCC(O)CNCCOc2ccccc2OC)c(Cl)c1 (stereo not shown) [compound 7, 4-{{N-{4-[2-hydroxy-3-(2-methoxy-1-oxyethylaminobenzene)propoxy]-3-choloro}phenyl}}-2,6-dimethyl-3,5-dicarbo-ethoxy-1,4-dihydropyridine] | 82± 6 | 40± 2 | 45± 5 | –
CCOC(=O)C1=C(C)NC(C)=C(C(=O)OCC)C1c1cc(Cl)ccc1OCC(O)CNCCOc1ccccc1OC (stereo not shown) [compound 6] | 80± 3 | 35± 5 | – | Aorta Relaxation [1]: 45± 4%
COc1cc(C=O)ccc1OCC(O)CNC(C)(C)C (stereo not shown) [VANIDILOL, reference compound] | – | – | – | selectivity ratio of β1 type adrenoceptor (effect on right atrium relative to tracheal) (β-adrenoreceptor (β1)): 0.98 X; tracheal relaxation effect [2]: dose-dependant tracheal relaxation effect
CCOC(=O)C1=C(C)NC(C)=C(C(=O)OCC)C1c1ccc(OCC(O)CNCCOc2ccccc2OC)c(OC)c1 (stereo not shown) [compound 3, 4-{{N-{4-[2-hydroxy-3-(2-methoxy-1-oxyethyl-aminobenzene)propoxy]-3-methoxy}phenyl}}-2,6-dimethyl-3,5-dicarboethoxy-1,4-dihydropyridine] | 78± 5 | 37± 5 | 41± 2 | –
CCOC(=O)C1=C(C)NC(C)=C(C(=O)OCC)C1c1cc([N+](=O)[O-])ccc1OCC(O)CNC(C)(C)C (stereo not shown) [compound 8] | 80± 3 | 40± 4 | 43± 3 | –
CC(C)NC[C@H](O)c1ccc(O)c(O)c1 [L-isoproterenol] | – | – | – | tracheal relaxation effect [2]: dose-dependant tracheal relaxation effect
CCCCNCC(O)COc1ccc(Cl)cc1C1C(C(=O)OCC)=C(C)NC(C)=C1C(=O)OCC (stereo not shown) [compound 5] | 74± 4 | 32± 4 | 33± 2 | –
CC(C)NCC(O)COc1ccc(CC(N)=O)cc1 (stereo not shown) [ATENOLOL] | – | – | – | atrial blocking effect ([3]; 3x10-4M): almost does not have atrial blocking effect
CC(C)NCC(O)COc1cccc2ccccc12 (stereo not shown) [PROPRANOLOL] | – | – | – | tracheal relaxation effect [2]: did not produce any relaxation effect; direct effect on atrial tissue ([3]; 10^-4∼10^-3 M): could inactivate or unexcited the tissue; direct effect on right atrium beating rate and left atrium isometric contractions ([3]; cumulative administration, reserpine pretreated): could retard the beating rate and isometric contractions
